For 19 molecules, EC50 results are on record in patent publication US9067898B1, “Isothiazole derivatives as GPR120 agonists for the treatment of type II diabetes” (Janssen Pharmaceutica NV, priority 2014, dated 2015).

Molecules are shown by their SMILES.

In experiment [1] the target is T1, short form of the GPR120 receptor (GPR120S) (Homo sapiens, UniProt Q5NUL3).
T1 construct: host or cells: PathHunter CHO-K1 GPR120S β-Arrestin Cell Line
The experiment can be described thus: Human GPR120 DiscoveRx PathHunter Beta-Arrestin assay, Procedure β-arrestin B. The format is cell-based. The conditions noted are these: PathHunter CHO-K1 GPR120S β-Arrestin cell line, 5000 cells/well, read-out: hGPR120 β-arrestin B EC50. An excerpt:
The binding of an agonist (medium/long chain fatty acids or small molecule agonists) to the G-protein-coupled receptor GPR120 activates phospholipase C, leading to release of intracellular Ca^+2 through the generation of inositol 1,4,5-trisphosphate (InsP3 or IP3). GPR120 activation can also trigger intracellular signaling via recruitment of Beta-Arrestin. In the present method, agonist-induced activation of the human GPR120 receptor is monitored through the use of PathHunter CHO-K1 GPR120 Beta-Arrestin Cell Line engineered by DiscoveRx, as detailed below. The cell lines are designed to co-express both the ProLink/Enzyme Donor (PK)-tagged GPCR and the Enzyme […] (EA)-tagged Beta-Arrestin fusion proteins. Upon GPR120 receptor stimulation/activation, the EA-tagged Beta-Arrestin portion is translocated to the tagged receptor, where the two enzyme fragments are brought within close proximity. Under these conditions, these fragments can interact and form an active Beta-gal enzyme complex through Enzyme Fragment Complementation (EFC). This active Beta-gal complex can enzymatically hydrolyse the substrate to produce a detectable light signal; therefore, activation as a function of agonist concentration can be expressed as an EC50 value to determine relative compound activities. This in vitro assay therefore serves to assess compound agonist activity of the GPR120. Procedure β-Arrestin A: In Procedure β-arrestin A, the cell used were PathHunter CHO-K1 GPR120 β-Arrestin Cell Line, expressing the long form of human GPR120 (Genbank accession number NM 181745), with 3000 cells per well. Procedure β-Arrestin B: In Procedure 3-arrestin B the cells used were PathHunter CHO-K1 GPR120S β-Arrestin Cell Line, expressing the short form of the GPR120 receptor (Accession #NM_181745), with 5000 cells/well. Assay Procedure:
The selected CHO-K1 GPR120 β-Arrestin cells were cultured in Ham's F12 media supplemented with 10% fetal bovine serum (FBS), 1% Glutamine, lx p/s, 800 μg/mL G418 and 300 μg/mL Hygromycin B (for selection). Cell stocks were maintained and grown in a sub-confluent state using standard cell culture procedures. The day before the experiment, the cells were harvested with non-enzymatic cell dissociation buffer and re-suspended in complete growth media at the desired concentration. A Corning 384-plate was then seeded with the proper number of cells in a volume of 25 μL, per well. The seeded plates were incubated overnight at 37° C.
On the day of the experiment, the Assay Buffer containing (a) HBSS with Ca^++ and Mg^++, (b) 20 mM HEPES, and (c) 0.1% BSA stabilizer (pH 7.4) was prepared. The growth medium was gently removed from the cell plates and 20 μL of Assay Buffer added to each well. The plate was then incubated at 37° C. for 60 min. Test compounds were serially diluted in Assay Buffer to desired concentrations (more particularly to one or more of the following μM concentrations: 25, 12.5, 6.25, 3.125, 1.5625, 0.78125, 0.390625, 0.1953125, 0.09765625, 0.048828125, 0.024414063, 0.012207031). Five μL of compound dilution was then added to each well and the plate incubated at 37° C. for 90 min. The detection reagents were prepared according to the manufacture's instruction. Twelve μL of the detection reagents were added to each well and the plate incubated at room temperature for 60 min.
The plates were read on an EnVision instrument, using Protocol name: Luminescence, Plate type: 384 Costar, Measurement height: 3 mm, Measurement time: 1 s, Aperture: 384 Plate aperture. The % activity relative to the positive control was calculated using the following equation:
The % Activity values were plotted versus the concentration of test compound and fitted to a sigmoidal dose-response curve with a Hill slope=1 (fixed value) using nonlinear regression with GraphPad Prism 5.0 to calculate the EC50 values. […]

Experiment [2] deals with T2, Human GPR120 short form (Homo sapiens, UniProt Q5NUL3).
T2 construct: expressed in transfected cells
T2 sequence (Q5NUL3 1-361): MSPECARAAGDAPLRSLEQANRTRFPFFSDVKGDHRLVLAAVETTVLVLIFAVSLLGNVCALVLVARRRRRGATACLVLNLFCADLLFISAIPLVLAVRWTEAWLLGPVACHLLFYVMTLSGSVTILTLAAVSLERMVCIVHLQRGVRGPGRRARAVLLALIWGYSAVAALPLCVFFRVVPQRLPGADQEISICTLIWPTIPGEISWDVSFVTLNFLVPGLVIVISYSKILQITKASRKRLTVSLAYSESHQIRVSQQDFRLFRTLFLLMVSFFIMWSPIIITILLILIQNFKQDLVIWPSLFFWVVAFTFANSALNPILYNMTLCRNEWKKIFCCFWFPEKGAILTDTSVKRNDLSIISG
The experiment can be described thus: Human GPR120 calcium flux assay (FLIPR), Procedure Calcium A. The format is cell-based. The conditions noted are these: HEK-293 cells expressing human GPR120 short form, 2500 cells/well; read-out: GPR120 Ca2+ Assay A EC50. The procedure, abridged: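 HEK293 cells stably expressing the short isoform (NM_001195755.1), 2500/well, starved 1 h, then loaded with Fluo-4 NW plus probenecid (30 min 37 °C, 15 min RT). Compound solutions 0.012–100 μM, 0.2% DMSO final; FLIPR read 300 s after addition. EC50 from Fmax−Fmin fitted to variable-slope sigmoid (Hill <2).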

T1 sequence (P32121 whole entry partner, one chain of several): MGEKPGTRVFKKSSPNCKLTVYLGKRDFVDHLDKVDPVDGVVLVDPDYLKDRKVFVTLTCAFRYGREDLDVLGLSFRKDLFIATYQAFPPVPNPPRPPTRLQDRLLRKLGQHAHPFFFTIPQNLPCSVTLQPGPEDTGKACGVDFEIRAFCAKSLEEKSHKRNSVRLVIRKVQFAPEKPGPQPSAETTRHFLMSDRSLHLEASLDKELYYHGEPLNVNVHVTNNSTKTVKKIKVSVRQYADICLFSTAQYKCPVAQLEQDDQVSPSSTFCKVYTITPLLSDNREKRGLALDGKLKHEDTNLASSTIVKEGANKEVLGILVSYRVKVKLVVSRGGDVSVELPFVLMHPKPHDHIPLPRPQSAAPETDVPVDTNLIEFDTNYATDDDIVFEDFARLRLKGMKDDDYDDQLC

As to `O=C(O)CCc1cc(F)c(OCc2c(-c3ccccc3)nsc2C(F)(F)F)c(F)c1` [Cpd 145, 3-(3,5-difluoro-4-((3-phenyl-5-(trifluoromethyl)isothiazol-4-yl)methoxy)phenyl)propanoic acid], the EC50 in experiment [1] was determined as 132 nM; in experiment [2], 160 nM.
With `O=C(O)CCc1cc(F)c(OCc2c(C3CC(F)(F)C3)nsc2C(F)(F)F)c(F)c1` [Cpd 147, 3-(4-[[3-(3,3-difluorocyclobutyl)-5-(trifluoromethyl)-1,2-thiazol-4-yl]methoxy]-3,5-difluorophenyl) propanoic acid], the EC50 in experiment [1] was found to be 390 nM; in experiment [2] it was 165 nM.
On the same counts, the results for `COc1ccc(-c2nsc(C(F)(F)F)c2COc2c(F)cc(CCC(=O)O)cc2F)c(F)c1` [Cpd 151, 3-(3,5-difluoro-4-[[3-(2-fluoro-4-methoxyphenyl)-5-(trifluoromethyl)-1,2-thiazol-4-yl]methoxy]phenyl)propanoic acid] are 85 nM and 169 nM.
On the same counts, the results for `Cc1ccc(-c2snc(C(F)(F)F)c2COc2ccc(CCC(=O)O)c(C)c2C)c(F)c1` [Cpd 155, 3-(4-[[5-(2-fluoro-4-methylphenyl)-3-(trifluoromethyl)-1,2-thiazol-4-yl]methoxy]-2,3-dimethylphenyl)propanoic acid] are 719 nM and 182 nM.
For the molecule `O=C(O)CCc1ccc(OCc2c(C(F)(F)F)nsc2-c2ccc(Cl)cc2)cc1OC(F)(F)F` [Cpd 159, 3-(4-[[5-(4-chlorophenyl)-3-(trifluoromethyl)-1,2-thiazol-4-yl]methoxy]-2-(trifluoromethoxy)phenyl) propanoic acid], the figures for the EC50 in experiment [1] and in experiment [2] were 415 nM and 198 nM, respectively.
The like results for `O=C(O)CCc1cc(F)c(OCc2c(C3CCC(F)(F)C3)nsc2C(F)(F)F)c(F)c1` (centres unmarked) [Cpd 164, 3-(4-[[3-(3,3-difluorocyclopentyl)-5-(trifluoromethyl)-1,2-thiazol-4-yl]methoxy]-3,5-difluorophenyl)propanoic acid] were, in that order, 427 nM and 210 nM.
Turning to `CC(Cc1ccc(OCc2c(-c3ccc(Cl)c(F)c3)nsc2C(F)(F)F)cc1)C(=O)O` (centres unmarked) [Cpd 165, 3-(4-((3-(4-chloro-3-fluorophenyl)-5-(trifluoromethyl)isothiazol-4-yl)methoxy)phenyl)-2-methylpropanoic acid], the figures for the EC50 in experiment [1] and in experiment [2] were 435 nM and 215 nM, respectively.
Take `COc1ccc(-c2nsc(C(F)(F)F)c2COc2ccc(CCC(=O)O)c(C)c2C)cn1` [Cpd 167, 3-(4-[[3-(6-methoxypyridin-3-yl)-5-(trifluoromethyl)-1,2-thiazol-4-yl]methoxy]-2,3-dimethylphenyl)propanoic acid]: the figures for the concentration giving a half-maximal response (EC50) in experiment [1] and in experiment [2] were 352 nM and 222 nM, respectively.
In the case of `Cc1ccc(-c2nsc(C(F)(F)F)c2COc2ccc(CCC(=O)O)c(C(F)(F)F)c2)c(F)c1` [Cpd 171, 3-(4-[[3-(2-fluoro-4-methylphenyl)-5-(trifluoromethyl)-1,2-thiazol-4-yl]methoxy]-2-(trifluoromethyl)phenyl)propanoic acid], the EC50 in experiment [1] came to 1210 nM; in experiment [2], 226 nM.
The like results for `COc1ccc(-c2nsc(C(F)(F)F)c2COc2ccc(CCC(=O)O)c(C)c2C)cc1F` [Cpd 172, 3-(4-[[3-(3-fluoro-4-methoxyphenyl)-5-(trifluoromethyl)-1,2-thiazol-4-yl]methoxy]-2,3-dimethylphenyl)propanoic acid] were, in that order, 147 nM and 229 nM.
With `O=C(O)CCc1ccc(OCc2c(-c3ccc(Cl)cc3)nsc2C(F)(F)F)cc1C(F)(F)F` [Cpd 173, 3-(4-[[3-(4-chlorophenyl)-5-(trifluoromethyl)-4-yl]methoxy]-2-(trifluoromethyl)phenyl)propanoic acid], the EC50 in experiment [1] is 421 nM; in experiment [2], 236 nM.
In the case of `O=C(O)CCc1cc(F)c(OCc2c(-c3ccc(F)cc3F)nsc2C(F)(F)F)c(F)c1` [Cpd 174, 3-(4-((3-(2,4-difluorophenyl)-5-(trifluoromethyl)isothiazol-4-yl)methoxy)-3,5-difluorophenyl)propanoic acid], the values for the EC50 in experiment [1] and in experiment [2] were 85 nM and 246 nM, respectively.
On the same counts, the results for `Cc1ccc(-c2snc(Cl)c2COc2ccc(CCC(=O)O)c(C(F)(F)F)c2)c(F)c1` [Cpd 175, 3-(4-[[3-chloro-5-(2-fluoro-4-methylphenyl)-1,2-thiazol-4-yl]methoxy]-2-(trifluoromethyl)phenyl)propanoic acid] are 230 nM and 247 nM.
On the same counts, the results for `Cc1ccc(-c2snc(C(F)(F)F)c2COc2ccc(CCC(=O)O)c(C)c2C)c(C)c1` [Cpd 184, 3-(4-[[5-(2,4-dimethylphenyl)-3-(trifluoromethyl)-1,2-thiazol-4-yl]methoxy]-2,3-dimethylphenyl) propanoic acid] are 997 nM and 300 nM.
The like results for `CCc1ccc(-c2nsc(C(F)(F)F)c2COc2c(F)cc(CC(C)C(=O)O)cc2F)c(F)c1` (centres unmarked) [Cpd 188, 3-(4-((3-(4-ethyl-2-fluorophenyl)-5-(trifluoromethyl)isothiazol-4-yl)methoxy)-3,5-difluorophenyl)-2-methylpropanoic acid] were, in that order, 153 nM and 306 nM.
With `CCc1ccc(-c2nsc(C(F)(F)F)c2COc2c(F)cc(CCC(=O)O)cc2F)cc1F` [Cpd 194, 3-(4-((3-(4-ethyl-3-fluorophenyl)-5-(trifluoromethyl)isothiazol-4-yl)methoxy)-3,5-difluorophenyl)propanoic acid], the figures for the concentration giving a half-maximal response (EC50) in experiment [1] and in experiment [2] were 40 nM and 362 nM, respectively.
With `CC(Cc1ccc(OCc2c(-c3ccc(Cl)cc3)nsc2C(F)(F)F)cc1)C(=O)O` (centres unmarked) [Cpd 195, 3-(4-[[3-(4-chlorophenyl)-5-(trifluoromethyl)-1,2-thiazol-4-yl]methoxy]phenyl)-2-methylpropanoic acid], the EC50 in experiment [1] turned out to be 307 nM; in experiment [2], 366 nM.
As to `CC(Cc1cc(F)c(OCc2c(-c3ccc(F)cc3F)nsc2C(F)(F)F)c(F)c1)C(=O)O` (centres unmarked) [Cpd 196, 3-(4-((3-(2,4-difluorophenyl)-5-(trifluoromethyl)isothiazol-4-yl)methoxy)-3,5-difluorophenyl)-2-methylpropanoic acid], the EC50 turned out to be 195 nM in experiment [1] and 370 nM in experiment [2].
The like results for `COc1cc(F)c(-c2nsc(C(F)(F)F)c2COc2c(F)cc(CCC(=O)O)cc2F)c(F)c1` [Cpd 197, 3-(4-[[3-(2,6-difluoro-4-methoxyphenyl)-5-(trifluoromethyl)-1,2-thiazol-4-yl]methoxy]-3,5-difluorophenyl)propanoic acid] were, in that order, 224 nM and 392 nM.

As usually defined, the EC50 is the concentration that produces a half-maximal response.
